Results published in ChEMBL document CHEMBL1201862, “PubChem BioAssay data set” (2004).
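Grown in 96-well plates, cells were treated for 48 hours with each compound at five concentrations. Insufficient inhibition: endpoint recorded as highest concentration tested. The concentration for 50% growth inhibition is given as GI50.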 The source made the active and inactive calls. Rule as the data show it: active = GI50 up to about 1.1 µM and inactive = higher.

Legend:
Assay in all cases: NCI tumour cell line growth inhibition, 48 h
786-0 = tested on: 786-0
A498 = tested on: A498
A549 = tested on: A549
ACHN = tested on: ACHN
BT-549 = tested on: BT-549
CAKI-1 = tested on: CAKI-1
CCRF-CEM = tested on: CCRF-CEM
COLO 205 = tested on: COLO 205
DU-145 = tested on: DU-145
EKVX = tested on: EKVX
HCC 2998 = tested on: HCC 2998
HCT-116 = tested on: HCT-116
HCT-15 = tested on: HCT-15
HL-60 = tested on: HL-60
HOP-62 = tested on: HOP-62
HOP-92 = tested on: HOP-92
HT-29 = tested on: HT-29
Hs-578T = tested on: Hs-578T
IGROV-1 = tested on: IGROV-1
K562 = tested on: K562
KM12 = tested on: KM12
LOX IMVI = tested on: LOX IMVI
M14 = tested on: M14
MCF7 = tested on: MCF7
MDA-MB-231 = tested on: MDA-MB-231
MDA-MB-435 = tested on: MDA-MB-435
MOLT-4 = tested on: MOLT-4
Malme-3M = tested on: Malme-3M
NCI-H23 = tested on: NCI-H23
NCI-H460 = tested on: NCI-H460
NCI-H522 = tested on: NCI-H522
NCI/ADR-RES = tested on: NCI/ADR-RES
OVCAR-3 = tested on: OVCAR-3
OVCAR-5 = tested on: OVCAR-5
OVCAR-8 = tested on: OVCAR-8
PC-3 = tested on: PC-3
RPMI-8226 = tested on: RPMI-8226
RXF 393 = tested on: RXF 393
SF-268 = tested on: SF-268
SF-295 = tested on: SF-295
SF-539 = tested on: SF-539
SK-MEL-28 = tested on: SK-MEL-28
SK-MEL-2 = tested on: SK-MEL-2
SK-MEL-5 = tested on: SK-MEL-5
SK-OV-3 = tested on: SK-OV-3
SNB-19 = tested on: SNB-19
SR = tested on: SR
SW-620 = tested on: SW-620
T47D = tested on: T47D
TK-10 = tested on: TK-10
U-251 = tested on: U-251
UACC-257 = tested on: UACC-257
UACC-62 = tested on: UACC-62
UO-31 = tested on: UO-31
MDA-N = tested on: MDA-N
NCI-H226 = tested on: NCI-H226
OVCAR-4 = tested on: OVCAR-4
SNB-75 = tested on: SNB-75

Q: How did the GI50 (786-0) turn out when COc1cc(Nc2nc3ccccc3n3cccc23)cc(OC)c1OC was run?
A: 94.8 µM (inactive)

Q: What about the GI50 (A498) of the same compound?
A: > 100 µM (inactive)

Q: What about the GI50 (A549) of the same compound?
A: > 100 µM (inactive)

Q: What about the GI50 (ACHN) of the same compound?
A: > 100 µM (inactive)

Q: And the GI50 (BT-549)?
A: 68.9 µM (inactive)

Q: What about the GI50 (CAKI-1) of the same compound?
A: > 100 µM (inactive)

Q: And the GI50 (CCRF-CEM)?
A: > 100 µM (inactive)

Q: What about the GI50 (COLO 205) of the same compound?
A: > 100 µM (inactive)

Q: And the GI50 (DU-145)?
A: > 100 µM (inactive)

Q: What about the GI50 (EKVX) of the same compound?
A: > 100 µM (inactive)

Q: And the GI50 (HCC 2998)?
A: > 100 µM (inactive)

Q: And the GI50 (HCT-116)?
A: > 100 µM (inactive)

Q: And the GI50 (HCT-15)?
A: > 100 µM

Q: And the GI50 (HL-60)?
A: 47.8 µM (inactive)

Q: And the GI50 (HOP-62)?
A: 19.1 µM (inactive)

Q: And the GI50 (HOP-92)?
A: 44.2 µM (inactive)

Q: What about the GI50 (HT-29) of the same compound?
A: > 100 µM (inactive)

Q: What about the GI50 (Hs-578T) of the same compound?
A: 64.4 µM (inactive)

Q: What about the GI50 (IGROV-1) of the same compound?
A: 54.7 µM (inactive)

Q: And the GI50 (K562)?
A: > 100 µM (inactive)

Q: And the GI50 (KM12)?
A: > 100 µM (inactive)

Q: What about the GI50 (LOX IMVI) of the same compound?
A: > 100 µM (inactive)

Q: What about the GI50 (M14) of the same compound?
A: > 100 µM (inactive)

Q: What about the GI50 (MCF7) of the same compound?
A: > 100 µM (inactive)

Q: What about the GI50 (MDA-MB-231) of the same compound?
A: 27.1 µM (inactive)

Q: What about the GI50 (MDA-MB-435) of the same compound?
A: > 100 µM (inactive)

Q: What about the GI50 (MOLT-4) of the same compound?
A: > 100 µM (inactive)

Q: What about the GI50 (Malme-3M) of the same compound?
A: > 100 µM (inactive)

Q: And the GI50 (NCI-H23)?
A: 73.8 µM (inactive)

Q: What about the GI50 (NCI-H460) of the same compound?
A: > 100 µM (inactive)

Q: And the GI50 (NCI-H522)?
A: > 100 µM (inactive)

Q: And the GI50 (NCI/ADR-RES)?
A: > 100 µM (inactive)

Q: And the GI50 (OVCAR-3)?
A: > 100 µM (inactive)

Q: And the GI50 (OVCAR-5)?
A: > 100 µM (inactive)

Q: What about the GI50 (OVCAR-8) of the same compound?
A: 20.3 µM (inactive)

Q: What about the GI50 (PC-3) of the same compound?
A: > 100 µM (inactive)

Q: What about the GI50 (RPMI-8226) of the same compound?
A: > 100 µM (inactive)

Q: What about the GI50 (RXF 393) of the same compound?
A: 17.5 µM (inactive)

Q: What about the GI50 (SF-268) of the same compound?
A: 28.5 µM (inactive)

Q: And the GI50 (SF-295)?
A: 63.5 µM (inactive)

Q: And the GI50 (SF-539)?
A: > 100 µM (inactive)

Q: And the GI50 (SK-MEL-28)?
A: > 100 µM (inactive)

Q: What about the GI50 (SK-MEL-2) of the same compound?
A: 52.5 µM (inactive)

Q: And the GI50 (SK-MEL-5)?
A: > 100 µM (inactive)

Q: And the GI50 (SK-OV-3)?
A: 37.3 µM (inactive)

Q: What about the GI50 (SNB-19) of the same compound?
A: 98.2 µM (inactive)

Q: What about the GI50 (SR) of the same compound?
A: > 100 µM (inactive)

Q: And the GI50 (SW-620)?
A: > 100 µM (inactive)

Q: What about the GI50 (T47D) of the same compound?
A: 0.276 µM (active)

Q: And the GI50 (TK-10)?
A: 36.3 µM (inactive)

Q: And the GI50 (U-251)?
A: 47.8 µM (inactive)

Q: And the GI50 (UACC-257)?
A: > 100 µM (inactive)

Q: What about the GI50 (UACC-62) of the same compound?
A: > 100 µM (inactive)

Q: And the GI50 (UO-31)?
A: > 100 µM (inactive)

Q: How did the GI50 (786-0) turn out when Cc1ccc(S(=O)(=O)n2c3c(c4ccccc42)CCN2CCC(Br)C[C@@H]32)cc1 (stereo not given in full) was run?
A: 16.6 µM (inactive)

Q: What about the GI50 (A498) of the same compound?
A: 22.6 µM (inactive)

Q: And the GI50 (A549)?
A: 16.7 µM (inactive)

Q: What about the GI50 (ACHN) of the same compound?
A: 17 µM (inactive)

Q: And the GI50 (CAKI-1)?
A: 11.8 µM (inactive)

Q: What about the GI50 (CCRF-CEM) of the same compound?
A: 12.2 µM (inactive)

Q: And the GI50 (COLO 205)?
A: 16.3 µM (inactive)

Q: What about the GI50 (DU-145) of the same compound?
A: 15.1 µM (inactive)

Q: And the GI50 (EKVX)?
A: 19.1 µM (inactive)

Q: And the GI50 (HCC 2998)?
A: 15 µM (inactive)

Q: What about the GI50 (HCT-15) of the same compound?
A: 12.1 µM

Q: And the GI50 (HL-60)?
A: 5.12 µM (inactive)

Q: And the GI50 (HOP-62)?
A: 15 µM (inactive)

Q: And the GI50 (HOP-92)?
A: 18.1 µM (inactive)

Q: What about the GI50 (HT-29) of the same compound?
A: 13.3 µM (inactive)

Q: And the GI50 (Hs-578T)?
A: 13.7 µM (inactive)

Q: What about the GI50 (IGROV-1) of the same compound?
A: 10.1 µM (inactive)

Q: What about the GI50 (K562) of the same compound?
A: 5.11 µM (inactive)

Q: And the GI50 (KM12)?
A: 8.81 µM (inactive)

Q: And the GI50 (LOX IMVI)?
A: 13.9 µM (inactive)

Q: And the GI50 (M14)?
A: 12.9 µM (inactive)

Q: And the GI50 (MCF7)?
A: 9.42 µM (inactive)

Q: And the GI50 (MDA-MB-231)?
A: 16.5 µM (inactive)

Q: And the GI50 (MDA-MB-435)?
A: 3.79 µM (inactive)

Q: And the GI50 (MDA-N)?
A: 4.42 µM (inactive)

Q: And the GI50 (MOLT-4)?
A: 9.73 µM (inactive)

Q: What about the GI50 (Malme-3M) of the same compound?
A: 13.2 µM (inactive)

Q: And the GI50 (NCI-H226)?
A: 13.4 µM (inactive)

Q: What about the GI50 (NCI-H23) of the same compound?
A: 11.7 µM (inactive)

Q: What about the GI50 (NCI-H460) of the same compound?
A: 14.9 µM (inactive)

Q: What about the GI50 (NCI-H522) of the same compound?
A: 6.34 µM (inactive)

Q: What about the GI50 (NCI/ADR-RES) of the same compound?
A: 16.2 µM (inactive)

Q: What about the GI50 (OVCAR-3) of the same compound?
A: 11.1 µM (inactive)

Q: What about the GI50 (OVCAR-4) of the same compound?
A: 13.1 µM (inactive)

Q: What about the GI50 (OVCAR-5) of the same compound?
A: 17.3 µM (inactive)

Q: What about the GI50 (OVCAR-8) of the same compound?
A: 12.6 µM (inactive)

Q: What about the GI50 (PC-3) of the same compound?
A: 13.1 µM (inactive)

Q: And the GI50 (RPMI-8226)?
A: 6.18 µM (inactive)

Q: And the GI50 (RXF 393)?
A: 12.9 µM (inactive)

Q: What about the GI50 (SF-268) of the same compound?
A: 16.1 µM (inactive)

Q: What about the GI50 (SF-295) of the same compound?
A: 11 µM (inactive)

Q: And the GI50 (SF-539)?
A: 16.7 µM (inactive)

Q: And the GI50 (SK-MEL-28)?
A: 11.9 µM (inactive)

Q: And the GI50 (SK-MEL-2)?
A: 16.3 µM (inactive)

Q: And the GI50 (SK-MEL-5)?
A: 7.74 µM (inactive)

Q: And the GI50 (SK-OV-3)?
A: 15.7 µM (inactive)

Q: And the GI50 (SNB-19)?
A: 15.4 µM (inactive)

Q: And the GI50 (SNB-75)?
A: 12.2 µM (inactive)

Q: And the GI50 (SR)?
A: 5.11 µM (inactive)

Q: And the GI50 (SW-620)?
A: 12.8 µM (inactive)

Q: What about the GI50 (T47D) of the same compound?
A: 6.11 µM (inactive)

Q: And the GI50 (TK-10)?
A: 15.6 µM (inactive)

Q: And the GI50 (U-251)?
A: 12.4 µM (inactive)

Q: And the GI50 (UACC-257)?
A: 7.23 µM (inactive)

Q: What about the GI50 (UACC-62) of the same compound?
A: 11.9 µM (inactive)

Q: And the GI50 (UO-31)?
A: 11.9 µM (inactive)
